Reference: patent publication US8470770B2, “Antimicrobial agents” (priority 2007, dated 2013)
Converted amounts (≈) assume the structure as drawn. Bridge positions count the residues as written; N and C are the ends. Square brackets hold non-standard residues; d marks the D form. Ends that are not written are not given here. Peptide text beside a SMILES is read from it. 12Ado = NCCCCCCCCCCCC(=O)O

How the values were obtained:
[1] = system: Escherichia coli (ATCC 35218); experiment: microbe, parasite or virus in culture; settings: for MIC E.c.: ATCC 35218
Method: (§1) Minimal inhibitory concentrations (MICs) were determined by microdilution susceptibility testing in 96-well plates using inocula of 10^6 bacteria per ml.
(§2) Cell populations were evaluated by optical density measurements at 600 nm and were calibrated against a set of standards. Hundred (100) μl of a bacterial suspension were added to 100 μl of culture medium (control) or to 100 μl of culture medium containing various polymer concentrations in 2-fold serial dilutions.
(§3) Alternatively, MICs were determined using the microbroth dilution assay recommended by the Clinical and Laboratory Standards Institute (CLSI) using two-fold serial dilutions in cation-adjusted Mueller-Hinton broth (CAMHB).
“MIC E.c.” represents the minimal inhibitory concentration of each tested polymer in μM for E. coli, measured as described hereinabove in the antibacterial activity assay (column 5 in Table 3);

[2] = system: Pseudomonas aeruginosa (ATCC 9027); experiment: microbe, parasite or virus in culture; settings: for MIC P.a.: ATCC 9027
Method: as §1, §2, §3
“MIC P.a.” represents the minimal inhibitory concentration of each tested polymer in μM for P. aeruginosa, measured as described hereinabove for the antibacterial activity assay (column 7 in Table 3);

[3] = system: methicillin resistant Staphylococcus aureus (CI 15903); experiment: microbe, parasite or virus in culture; settings: for MIC MR S.a.: methicillin resistant (CI 15903); for MIC: Staphylococcus aureus, read-out: MIC MR S.a.
Method: as §1, §2, §3
“MIC MR S.a.” represents the minimal inhibitory concentration of each tested polymer in μM for methicillin-resistant S. aureus, measured as described hereinabove for the antibacterial activity assay of antibiotic-resistant bacteria (column 8 in Table 3);

[4] = system: Enterococcus faecalis (ATCC 29212); experiment: microbe, parasite or virus in culture; format: cell-based
[5] = Hydrophobicity estimation by HPLC reversed-phase C18 elution; format: physicochemical; settings: HPLC-RP C18, linear acetonitrile gradient 1% per minute
Method: HPLC chromatograms were performed on C18 columns (Vydak, 250 mm×4.6 or 10 mm) using a linear gradient of acetonitrile in water (1% per minute), both solvents contained 0.1% trifluoroacetic acid. The purified polymers were subjected to mass spectrometry (ZQ Waters) to confirm their composition and stored as a lyophilized powder at −20° C. Prior to being tested, fresh solutions were prepared in water, mixed by vortex, solubilized by ultrasound, centrifuged and then diluted in the appropriate medium.
In order to estimate the hydrophobicity of each polymer, the polymer was eluted with a linear gradient of acetonitrile (1% per minute) on an HPLC reversed-phase C18 column, and the percent of acetonitrile at which the polymer was eluted was used for hydrophobicity estimation (see, “ACN (%)” in Table 3 below).
“ACN (%)” represents the percent of acetonitrile in the HPLC-RP gradient mobile phase at which the polymer was eluted and which corresponds to the estimated hydrophobicity of the polymer (column 4 in Table 3);

[6] = system: Bacillus cereus (ATCC 11778)
Method: as §1, §2, §3
“MIC B.c.” represents the minimal inhibitory concentration of each tested polymer in μM for Bacillus cereus, measured as described hereinabove for the antibacterial activity assay (column 9 in Table 3); and […]

Row | Compound | MIC E.c. [1] [µM] | MIC P.a. [2] [µM] | MIC MR S.a. [3] [µM] | MIC ([4]; ATCC 29212) [µM] | ACN (%) (percent of acetonitrile at which the polymer was eluted; estimated hydrophobicity) [5] | also measured
1 | NCCCC[C@@H]1NC(=O)CCCCCCCCCCCNC(=O)[C@H](CCCCN)NC(=O)CCCCCCCCCCCNC(=O)[C@H](CCCCN)NC(=O)CCCCCCCCCCCNC(=O)[C@H](CCCCN)NC(=O)[C@H](CCCCN)NC(=O)CCCCCCCCCCCNC(=O)[C@H](CCCCN)NC(=O)CCCCCCCCCCCNC1=O [Polymer 2, Cyclic-K(NC12K)5] (cyclo(K[12Ado]K[12Ado]K[12Ado]K[12Ado]K[12Ado]K)) | 12.5 (≈ 21.9 µg/mL) | 12.5 (≈ 21.9 µg/mL) | 6.25 (≈ 11 µg/mL) | 6.25 (≈ 11 µg/mL) | 46.6 | –
2 | NCCCCC1NC(=O)CCCCCCCCCCCNC(=O)C(CCCCN)NC(=O)CCCCCCCCCCCNC1=O (stereo not drawn) [Polymer 3, Cyclic-(NC12K)2] | – | >50 | – | >50 | 49.7 | –
3 | NCCCCC1NC(=O)CCCCCCCCCCCNC(=O)C(CCCCN)NC(=O)CCCCCCCCCCCNC(=O)C(CCCCN)NC(=O)CCCCCCCCCCCNC(=O)C(CCCCN)NC(=O)CCCCCCCCCCCNC(=O)C(CCCCN)NC(=O)CCCCCCCCCCCNC1=O (stereo not drawn) [Polymer 6, Cyclic-(NC12K)5] | – | 50 (≈ 81.4 µg/mL) | – | – | 47.7 | MIC B.c [6]: >50 µM
4 | NCCCCC1NC(=O)CCCCCCCCCCCNC(=O)C(CCCCN)NC(=O)C(CCCCN)NC(=O)CCCCCCCCCCCNC(=O)C(CCCCN)NC1=O (stereo not drawn) [Polymer 7, Cyclic-(KNC12K)2] (cyclo([12Ado]KK[12Ado]KK); configuration not given here) | – | 25 (≈ 22.7 µg/mL) | – | 50 (≈ 45.4 µg/mL) | 40.7 | –
5 | NCCCC[C@@H]1NC(=O)CCCCCCCCCCCNC(=O)[C@H](CCCCN)NC(=O)[C@H](CCCCN)NC(=O)CCCCCCCCCCCNC(=O)[C@H](CCCCN)NC(=O)[C@H](CCCCN)NC(=O)CCCCCCCCCCCNC(=O)[C@H](CCCCN)NC1=O [Polymer 8, Cyclic-(KNC12K)3] (cyclo(K[12Ado]KK[12Ado]KK[12Ado]K)) | 25 (≈ 34 µg/mL) | 12.5 (≈ 17 µg/mL) | 25 (≈ 34 µg/mL) | 25 (≈ 34 µg/mL) | 41.7 | –
6 | NCCCCC1NC(=O)CCCCCCCCCCCNC(=O)C(CCCCN)NC(=O)C(CCCCN)NC(=O)CCCCCCCCCCCNC1=O (stereo not drawn) [Polymer 9, Cyclic-NC12KKNC12K] (cyclo([12Ado]K[12Ado]KK); configuration not given here) | – | 50 (≈ 39 µg/mL) | – | 25 (≈ 19.5 µg/mL) | 42.7 | –
7 | NCCCC[C@@H]1NC(=O)CCCCCCCCCCCNC(=O)[C@H](CCCCN)NC(=O)[C@H](CCCCN)NC(=O)CCCCCCCCCCCNC(=O)[C@H](CCCCN)NC(=O)[C@H](CCCCN)NC(=O)CCCCCCCCCCCNC1=O [Polymer 10, Cyclic-NC12K(KNC12K)2] (cyclo([12Ado]KK[12Ado]KK[12Ado]K)) | 12.5 (≈ 15.4 µg/mL) | 12.5 (≈ 15.4 µg/mL) | 12.5 (≈ 15.4 µg/mL) | 6.25 (≈ 7.71 µg/mL) | 43.1 | –
8 | NCCCC[C@@H]1NC(=O)CCCCCCCCCCCNC(=O)[C@H](CCCCN)NC(=O)[C@H](CCCCN)NC(=O)[C@H](CCCCN)NC(=O)CCCCCCCCCCCNC(=O)[C@H](CCCCN)NC1=O [Polymer 11, Cyclic-KNC12KKKNC12K] (cyclo(K[12Ado]KKK[12Ado]K)) | >50 | 12.5 (≈ 12.9 µg/mL) | >50 | >50 | 38 | –
9 | NCCCC[C@@H]1NC(=O)CCCCCCCCCCCNC(=O)[C@H](CCCCN)NC(=O)[C@H](CCCCN)NC(=O)[C@H](CCCCN)NC(=O)CCCCCCCCCCCNC(=O)[C@H](CCCCN)NC(=O)[C@H](CCCCN)NC1=O [Polymer 12, Cyclic-KNC12KKKNC12KK] (cyclo(K[12Ado]KKK[12Ado]KK)) | >50 | >50 | >50 | >50 | 35 | –
10 | CCCCCCCCCCCC(=O)NCCCCC(N)C(=O)NCCCCCCCCCCCC(=O)NCCCCC(N)C(N)=O (stereo not drawn) [Polymer 13, C12K(ε)NC12K(ε)NH2] | 12.5 (≈ 8.16 µg/mL) | >50 | 12.5 (≈ 8.16 µg/mL) | 12.5 (≈ 8.16 µg/mL) | 54.4 | –
11 | CC(C)C[C@H](NC(=O)CNC(=O)CNC(=O)[C@@H](N)CCCNC(=N)N)C(=O)N[C@H]1CSSC[C@@H](C(=O)N[C@H](C(=O)NCC(=O)N[C@@H](CCCNC(=N)N)C(N)=O)C(C)C)NC(=O)[C@H](C(C)C)NC(=O)[C@@H]2CSSC[C@H](NC(=O)[C@H](Cc3ccc(O)cc3)NC1=O)C(=O)N[C@@H](CCCNC(=N)N)C(=O)NCC(=O)N[C@@H](CCCNC(=N)N)C(=O)N[C@@H](Cc1ccccc1)C(=O)N2 [Ref. 2, IB-367, reference compound] (H-RGGLCYCRGRFCVCVGR-NH2; disulfide 5-14, 7-12) | – | – | – | – | 45 | –
12 | CC[C@H](C)[C@H](NC(=O)[C@H](CCCCN)NC(=O)[C@H](CCC(=O)O)NC(=O)[C@H](CCCCN)NC(=O)[C@H](CO)NC(=O)[C@H](CCCCN)NC(=O)[C@H](CCCNC(=N)N)NC(=O)[C@H](Cc1ccccc1)NC(=O)[C@H](Cc1ccccc1)NC(=O)[C@H](CC(=O)O)NC(=O)CNC(=O)[C@H](CC(C)C)NC(=O)[C@@H](N)CC(C)C)C(=O)NCC(=O)N[C@@H](CCCCN)C(=O)N[C@@H](CCC(=O)O)C(=O)N[C@@H](Cc1ccccc1)C(=O)N[C@@H](CCCCN)C(=O)N[C@@H](CCCNC(=N)N)C(=O)N[C@H](C(=O)N[C@H](C(=O)N[C@@H](CCC(N)=O)C(=O)N[C@@H](CCCNC(=N)N)C(=O)N[C@H](C(=O)N[C@@H](CCCCN)C(=O)N[C@@H](CC(=O)O)C(=O)N[C@@H](Cc1ccccc1)C(=O)N[C@@H](CC(C)C)C(=O)N[C@@H](CCCNC(=N)N)C(=O)N[C@@H](CC(N)=O)C(=O)N[C@@H](CC(C)C)C(=O)N[C@H](C(=O)N1CCC[C@H]1C(=O)N[C@@H](CCCNC(=N)N)C(=O)N[C@H](C(=O)N[C@@H](CCC(=O)O)C(=O)N[C@@H](CO)C(=O)O)[C@@H](C)O)C(C)C)[C@@H](C)CC)C(C)C)[C@@H](C)CC [Ref. 4, LL37, reference compound] | – | – | – | – | 61 | MIC ([4]; Enterococcus faecalis): 37.5 µM (≈ 169 µg/mL)
13 | C[C@@H](O)[C@H]1C(=O)N2C(C(=O)O)=C(SCCN=CN)C[C@H]12 [Ref. 6, Imipenem, reference compound] | – | – | – | – | – | MIC [3]: > 50 µM; MIC ([4]; Enterococcus faecalis, ATCC29212): < 0.03 µM
14 | CN(C)[C@@H]1C(O)=C(C(N)=O)C(=O)[C@@]2(O)C(O)=C3C(=O)c4c(O)cccc4[C@@](C)(O)[C@H]3C[C@@H]12 [Ref. 7, Tetracycline, reference compound] | – | – | – | – | – | MIC ([1]; Escherichia coli, ATCC35218, read-out: MIC E.c.): 1.8 µM (≈ 0.8 µg/mL); MIC ([2]; Pseudomonas aeruginosa, ATCC9027, read-out: MIC P.a.): > 50 µM; MIC [3]: 0.4 µM (≈ 0.178 µg/mL)
15 | ALWKTLLKKVLKAAAK-NH2 (C-terminus assumed) [Ref. 3, K4S4(1-16), reference compound] | – | – | – | 3.1 | 47 | –
16 | GIGKFLKKAKKFGKAFVKILKK-NH2 (C-terminus assumed) [Ref. 1, MSI-78, reference compound] | – | – | – | 37.5 | 44 | –
